According to article PMC10870435, “A novel complement C3 inhibitor CP40-KK protects against experimental pulmonary arterial hypertension via an inflammasome NLRP3 associated pathway” (Journal of Translational Medicine, 2024):
Bridge positions count the residues as written; N and C are the ends. Square brackets hold non-standard residues; d marks the D form. Peptide text beside a SMILES is read from it. Trp(1-Me) = Cn1cc(C[C@H](N)C(=O)O)c2ccccc21; NMeI = CC[C@H](C)[C@H](NC)C(=O)O; Sar = CNCC(=O)O

Columns and labels:
[1] = Tail bleeding time; type: in vivo, rat; conditions: rats, after 2 weeks of treatment
[2] = tested on: rat complement C3 function; assay: CH50 test ex vivo, plasma of PAH experiment groups; type: in vivo; conditions: 2 mg/kg s.c. day 15 to day 28
Procedure: In the current study, two animal experiments were conducted successively. 30 rats were randomly divided into two groups (control group and MCT group, n = 15 per group) in the first experiment. MCT group rats received a single intraperitoneally injection of MCT (40 mg/kg) on day 1 to induce PAH while control group rats received an equivoluminal saline injection intraperitoneally. For the second animal experiment, the rats were assigned into four groups (control group, MCT group, CP40-KK group, and MCT + CP40-KK group, n = 15 per group). […]
The total functional complement was determined with a CH50 assay based on the modified method of Mayer. […] The OD values of supernatant liquid in the ten tubes were measured at 541 nm and compared with that of the 50% haemolytic standard tube to get the most similar value. The total haemolytic complement (CH50) = dilution ratio / the quantity of plasma needed to induce 50% lysis of sheep erythrocytes.
Plasma samples for biological assays from rats were centrifuged and stored at -80°C until used, and the total functional complement was determined with a CH50 assay based on the modified method of Mayer. This assay involves determining the quantity of plasma needed to induce 50% lysis of sheep erythrocytes sensitized with antibody anti-sheep erythrocytes. […]

[3] = tested on: C3b; conditions: cited from earlier work
[4] = Plasma lipids and lung oxidative stress markers in PAH rats; type: in vivo, rat
Procedure: Blood samples were obtained from rats, and plasma lipid levels were measured with a total cholesterol assay kit and triglyceride assay kit (Nanjing Jiancheng Bioengineering Institute, Nanjing City, China). 2.5μL plasma or 2.5μL calibrator was added into 250μL working solution, and then incubated at 37 ℃ for 10 minutes. OD values were measured at 500nm using a microplate reader (Bio-tek, Vermont, USA).
Figure S2. The effect of CP40-KK on oxidative stress in the lungs of the PAH rats. Representative Western blots (A) and quantification (B) of the NOX1, Gp91phox, NOX4 and SOD2 in lung homogenates of rat (B; n=6 per group).

[5] = tested on: rat complement C3 function; assay: CH50 test (Mayer method) in vitro, peptide added to rat plasma; type: biochemical; conditions: 0, 2.5, 5.0, 10, 20, 40 µM added to mixed wild-type SD rat plasma; sensitized sheep erythrocytes
Procedure: The total functional complement was determined with a CH50 assay based on the modified method of Mayer. The 50% haemolytic standard tube was made by adding 0.3 ml 2% sheep erythrocytes (Chundubio, Wuhan, China) to 1.2 ml distilled water and then diluting with equivoluminal veronal buffer saline (Leagene, Beijing, China). The sheep erythrocytes were sensitized by adding a designated volume of a predetermined concentration of rabbit haemolytic serum (Solarbio, Beijing, China) in veronal buffer saline. The plasma of rats was first prediluted in veronal buffer saline at 1/5, 1/10, and 1/20. […] The OD values of supernatant liquid in the ten tubes were measured at 541 nm and compared with that of the 50% haemolytic standard tube to get the most similar value. The total haemolytic complement (CH50) = dilution ratio / the quantity of plasma needed to induce 50% lysis of sheep erythrocytes.
Plasma samples for biological assays from rats were centrifuged and stored at -80°C until used, and the total functional complement was determined with a CH50 assay based on the modified method of Mayer. This assay involves determining the quantity of plasma needed to induce 50% lysis of sheep erythrocytes sensitized with antibody anti-sheep erythrocytes. […] The total hemolytic complement (CH50) = dilution ratio / the quantity of plasma needed to induce 50% lysis of sheep erythrocytes^5-7.

[6] = tested on: MCT-induced rat PAH model; assay: MCT-induced rat PAH model: hemodynamics, RV hypertrophy, vessel morphology; type: in vivo
Procedure: In the current study, two animal experiments were conducted successively. 30 rats were randomly divided into two groups (control group and MCT group, n = 15 per group) in the first experiment. MCT group rats received a single intraperitoneally injection of MCT (40 mg/kg) on day 1 to induce PAH while control group rats received an equivoluminal saline injection intraperitoneally. For the second animal experiment, the rats were assigned into four groups (control group, MCT group, CP40-KK group, and MCT + CP40-KK group, n = 15 per group). The control group was given the same volume of saline subcutaneously while the CP40-KK group rats only received CP40-KK (2 mg/kg) by subcutaneous injection from day 15 to day 28 continuously. The rats in the MCT group and MCT + CP40-KK group were received a single intraperitoneally injection of MCT (40 mg/kg) on day 1 and subcutaneously injected with either an equal volume of saline or CP40-KK (2 mg/kg) at day 15 to day 28 continuously. The dose selection of MCT and CP40-KK in our study was established based on previous studies.
Four weeks after the MCT injection, the experimental rats were weighed and anesthetized by intraperitoneal injecting pentobarbital sodium (40 mg/kg). After being anesthetized, rats were fixed in the supine position. A 3F polyethylene catheter filling with heparin was introduced into the right ventricle (RV) through the right jugular vein and the right atrium. Right ventricle systolic pressure (RVSP) was assessed by a pressure transducer and PowerLab system (AD Instruments, Australia). Pressure recordings were measured over a 2 min period and analyzed with Powerlab Pro Software (AD Instruments, Australia). After the hemodynamic study, the rats were euthanized by an overdose of anesthesia, and their lungs and hearts were dissected for further evaluation. The dry weights of the RV and left ventricle (LV) + septum were measured to calculate the RV/(LV + S) ratio and the RV / body weight (RV/BW). The left lung was fixed in 4% paraformaldehyde, and the right lung was snap-frozen in liquid nitrogen and stored at − 80 °C for further analysis.
Fixed lung samples were further fixed in 4% buffered paraformaldehyde for 24 h, embedded in paraffin, and processed for sectioning at 5 μm thick. Hematoxylin and eosin (H&E) staining were performed on paraffin-fixed lung tissue slides. The percent medial wall thickness (WT%) and percent medial wall area (WA%) were used to assess the extent of pulmonary vascular remodeling. WT% = (external diameter − internal diameter)/(external diameter) × 100%; WA% = (external area − internal area)/external area × 100%. All data were obtained and analyzed in a blinded manner.

[7] = MCT 40 mg/kg i.p. day 1, 2 mg/kg/day s.c. day 15-28, vs MCT group, n = 6 per group

- tail bleeding time [1]: significantly prolong
- effect on oxidative stress (NOX1, Gp91phox, NOX4, SOD2) ([4]; lung homogenates, western blot, Figure S2, n=6 per group): no effect
- effect on lipid metabolism (triglyceride, cholesterol) ([4]; rat plasma, PAH model groups, Figure S1): no effect
Compound: CC[C@H](C)[C@H](NC(=O)[C@H](N)Cc1ccc(O)cc1)C(=O)N[C@H]1CSSC[C@@H](C(=O)N(C)[C@H](C(=O)N[C@@H](CCCCN)C(=O)N[C@@H](CCCCN)C(N)=O)[C@@H](C)CC)NC(=O)[C@H](CCCNC(=N)N)NC(=O)[C@H](Cc2c[nH]cn2)NC(=O)CN(C)C(=O)[C@H](Cc2c[nH]c3ccccc23)NC(=O)[C@H](CC(=O)O)NC(=O)[C@H](CCC(N)=O)NC(=O)[C@H](Cc2cn(C)c3ccccc23)NC(=O)[C@H](C(C)C)NC1=O [CP40-KK] (H-[dY]ICV[Trp(1-Me)]QDW[Sar]HRC[NMeI]KK-NH2; disulfide 3-12 (inferred))
- CH50 value ex vivo, MCT + CP40-KK vs MCT group [2]: could reverse it
- binding affinity for C3b relative to CP40 [3]: increase the binding affinity for C3b
- CH50 value (rat C3 function) in vitro [5]: blocked rat C3 function in a dosage-dependent manner
- RV / (LV + S) ratio [6, 7]: significantly ameliorate
- RV / BW ratio [6, 7]: significantly ameliorate
- RVSP [6, 7]: significantly ameliorate
- pulmonary wall thickness index WA% [6, 7]: significantly ameliorate
- pulmonary wall thickness index WT% [6, 7]: significantly ameliorate
- PAH-related indices, CP40-KK only group vs saline only group ([6]; rats without MCT, 2 mg/kg s.c. day 15-28): no significant effect
